According to patent US6660768B2, “Parasiticidal compositions and methods of use” (Schering-Plough Animal Health Corporation, priority 2001, dated 2003):

Legend:
[1] = Example 3C: solubility of 30% permethrin in d-limonene/propylene glycol monomethyl ether mixtures at -15° C.; type: physicochemical; details: initial 30% permethrin
Procedure: The temperature was regulated to −15° C. The solutions were placed in the bath and allowed to crystallize and reach equilibrium.

[2] = Example 3D: solubility of permethrin in propylene glycol monomethyl ether at 20° C. after crystallization at 0° C.; type: physicochemical
Procedure: The solution was placed in the bath, and continually stirred. The bath temperature was lowered to 0° C. After crystallization occurred in the solution, the bath temperature setting was raised to 20° C. and the stirred slurry was allowed to equilibrate over a three-day period. After this time, samples of the supernatant were pulled on consecutive days. The crystals were separated from the liquid layer by filtration, and the crystals were washed with petroleum ether. […] The crystals were washed to remove any residual solution that might contaminant their analysis.

[3] = Example 3A: relative solubility of permethrin in neat solvents, seeded solutions in cold bath, supernatant assayed
Procedure: (§1) These solutions were poured into 100 mL tubes with screw top caps. These tubes were placed in the cold water bath and allowed to come to equilibrium at the temperature of the bath. […] The seeded preparations were then thoroughly shaken, replaced in the bath and allowed to remain in the bath for a 24 hour period. The preparations were then examined for crystallization, then again thoroughly agitated and replaced in the bath for an additional time period. Samples of the supernatant were removed after additional crystallization had occurred.
After 24 hours the tubes were examined for the relative amount of crystallization that may have occurred in each of the solutions. Where crystallization had occurred, samples of the supernatant were pulled from the vials and the temperature of the bath was lowered to 15° C.
Samples were again taken for assay from the solutions of hexylene glycol and methyl Carbitol® (diethylene glycol monomethyl ether).

[4] = Example 3B: solubility of permethrin in PM (propylene glycol monomethyl ether), DM (diethylene glycol monomethyl ether) and PM or DPM (dipropylene glycol monomethyl ether)/d-limonene mixtures at low temperatures, seeded
Procedure: as §1
The solvent mixtures tested were: dipropylene glycol monomethyl ether/d-limonene and propylene glycol monomethyl ether/d-limonene.
These solvent mixtures were evaluated at ratios of 2:1, 1:1, 1:2, and then at 8:2 and 9:1 (the first number refers to one of the glycol ethers, the second number refers to d-limonene).

[5] = Diethylene Glycol Monomethyl Ether, Initial
[6] = Dipropylene Glycol Monomethyl Ether, Initial
[7] = Propylene Glycol Monomethyl Ether, Initial

CC1(C)C(C=C(Cl)Cl)C1C(=O)OCc1cccc(Oc2ccccc2)c1 (centres unmarked) [permethrin]
% permethrin in solution ([1]; 0% d-limonene in formula): 23.57%
% permethrin in solution ([1]; 20% d-limonene in formula): 24.78%
% permethrin in solution ([1]; 33% d-limonene in formula): 25.52%
% permethrin in solution ([1]; 50% d-limonene in formula): 27.20%
% permethrin in solution ([1]; 67% d-limonene in formula): 27.51%
% permethrin in solution ([1]; 100% d-limonene in formula): 25.93%
% Permethrin ([2]; Assay of Crystals (filtered, washed), as the cis isomer): 100% as the cis isomer
% Permethrin ([2]; Initial Assay of 70% Solution in propylene glycol monomethyl ether): 72.86%
solubility of permethrin ([2]; in propylene glycol monomethyl ether, 20° C.): greater than 70%
% Permethrin ([2]; supernatant, propylene glycol monomethyl ether, 20° C., 2nd Day after Equilibrium Reached): 72.96%
% Permethrin ([2]; supernatant, propylene glycol monomethyl ether, 20° C., Assay after Equilibrium Reached): 72.93%
Permethrin ([3]; Diethylene Glycol Monomethyl Ether, 20° C.): 75.02%
Permethrin ([3]; Diethylene Glycol Monomethyl Ether, 25° C.): 74.90%
Cis Isomer [3, 5]: 28.79%
Permethrin [3, 5]: 69.70%
Trans Isomer [3, 5]: 40.91%
Permethrin ([3]; Diethylene Glycol Monomethyl Ether, […] C.): 74.44%
Permethrin ([3]; Dipropylene Glycol Monomethyl Ether, 15° C.): 73.83%
Permethrin ([3]; Dipropylene Glycol Monomethyl Ether, 20° C.): 75.15%
Permethrin ([3]; Dipropylene Glycol Monomethyl Ether, 25° C.): 75.39%
Cis Isomer [3, 6]: 29.41%
Permethrin [3, 6]: 70.35%
Trans Isomer [3, 6]: 40.94%
solubility among the tested solvents ([3]; Examples 3A-3D, low temperatures, order: d-limonene, PM, DPM, diethylene glycol monomethyl ether, hexylene glycol): greatest solubility in d-limonene
Permethrin ([3]; Hexylene Glycol, 25° C.): 75.02%
Cis Isomer ([3]; Hexylene Glycol, Initial): 29.77%
Permethrin ([3]; Hexylene Glycol, Initial): 71.09%
Trans Isomer ([3]; Hexylene Glycol, Initial): 41.32%
Permethrin ([3]; Hexylene Glycol, […] C.): 74.37%
Permethrin ([3]; Propylene Glycol Monomethyl Ether, 15° C.): 74.85%
Permethrin ([3]; Propylene Glycol Monomethyl Ether, 20° C.): 74.84%
Permethrin ([3]; Propylene Glycol Monomethyl Ether, 25° C.): 75.66%
Cis Isomer [3, 7]: 29.55%
Permethrin [3, 7]: 70.78%
Trans Isomer [3, 7]: 40.22%
Permethrin ([3]; d-limonene, 20° C.): 74.84%
Permethrin ([3]; d-limonene, 25° C.): 75.29%
Cis Isomer ([3]; d-limonene, Initial): 29.54%
Permethrin ([3]; d-limonene, Initial): 70.43%
Trans Isomer ([3]; d-limonene, Initial): 40.89%
% Total Permethrin ([4]; 65% permethrin in DPM/d-limonene, 0% d-limonene of solvent mixture, 0° C.): 58.25%
% Total Permethrin ([4]; 65% permethrin in DPM/d-limonene, 0% d-limonene of solvent mixture, 5° C.): 60.53%
% Total Permethrin ([4]; 65% permethrin in DPM/d-limonene, 10% d-limonene of solvent mixture, 10° C.): 61.42%
% Total Permethrin ([4]; 65% permethrin in DPM/d-limonene, 20% d-limonene of solvent mixture, 10° C.): 63.46%
% Total Permethrin ([4]; 65% permethrin in DPM/d-limonene, 33% d-limonene of solvent mixture, 0° C.): 61.65%
% Total Permethrin ([4]; 65% permethrin in DPM/d-limonene, 33% d-limonene of solvent mixture, 5° C.): 63.92%
% Total Permethrin ([4]; 65% permethrin in DPM/d-limonene, 33% d-limonene of solvent mixture, 10° C.): 64.93%
% Total Permethrin ([4]; 65% permethrin in DPM/d-limonene, 50% d-limonene of solvent mixture, 0° C.): 61.55%
% Total Permethrin ([4]; 65% permethrin in DPM/d-limonene, 50% d-limonene of solvent mixture, 5° C.): 64.83%
% Total Permethrin ([4]; 65% permethrin in DPM/d-limonene, 50% d-limonene of solvent mixture, 10° C.): 64.30%
% Total Permethrin ([4]; 65% permethrin in DPM/d-limonene, 67% d-limonene of solvent mixture, 0° C.): 61.33%
% Total Permethrin ([4]; 65% permethrin in DPM/d-limonene, 67% d-limonene of solvent mixture, 5° C.): 65.55%
% Total Permethrin ([4]; 65% permethrin in DPM/d-limonene, 67% d-limonene of solvent mixture, 10° C.): 64.92%
% Total Permethrin ([4]; 65% permethrin in DPM/d-limonene, 100% d-limonene of solvent mixture, 0° C.): 60.27%
% Total Permethrin ([4]; 65% permethrin in DPM/d-limonene, 100% d-limonene of solvent mixture, 5° C.): 62.73%
% Total Permethrin ([4]; 65% permethrin in DPM/d-limonene, 100% d-limonene of solvent mixture, 10° C.): 65.88%
% Total Permethrin ([4]; 65% permethrin in PM/d-limonene, 0% d-limonene of solvent mixture, 0° C.): 52.65%
% Total Permethrin ([4]; 65% permethrin in PM/d-limonene, 0% d-limonene of solvent mixture, 5° C.): 59.51%
% Total Permethrin ([4]; 65% permethrin in PM/d-limonene, 10% d-limonene of solvent mixture, 10° C.): 62.08%
% Total Permethrin ([4]; 65% permethrin in PM/d-limonene, 20% d-limonene of solvent mixture, 10° C.): 64.35%
% Total Permethrin ([4]; 65% permethrin in PM/d-limonene, 33% d-limonene of solvent mixture, 0° C.): 59.42%
% Total Permethrin ([4]; 65% permethrin in PM/d-limonene, 33% d-limonene of solvent mixture, 5° C.): 63.08%
% Total Permethrin ([4]; 65% permethrin in PM/d-limonene, 33% d-limonene of solvent mixture, 10° C.): 63.89%
% Total Permethrin ([4]; 65% permethrin in PM/d-limonene, 50% d-limonene of solvent mixture, 0° C.): 61.74%
% Total Permethrin ([4]; 65% permethrin in PM/d-limonene, 50% d-limonene of solvent mixture, 5° C.): 64.05%
% Total Permethrin ([4]; 65% permethrin in PM/d-limonene, 50% d-limonene of solvent mixture, 10° C.): 64.45%
% Total Permethrin ([4]; 65% permethrin in PM/d-limonene, 67% d-limonene of solvent mixture, 0° C.): 61.45%
% Total Permethrin ([4]; 65% permethrin in PM/d-limonene, 67% d-limonene of solvent mixture, 5° C.): 64.86%
